Data taken from patent publication US8748624B2, “Picolinamido-propanoic acid derivatives useful as glucagon receptor antagonists” (Janssen Pharmaceutica NV, priority 2011, dated 2014).

Tests used:
[1] = target: human glucagon receptor (GCGR) (Homo sapiens (Human), UniProt P47871); test: Inhibition of 125I-glucagon binding to membranes from HEK293 cells expressing the human glucagon receptor; details: membranes of hGluc-1 HEK cells, 125I-glucagon 0.3 nM, 2 hours room temperature; IC50 converted to Ki; average if tested more than once
Outline: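 Filtration binding assay on membranes from HEK293 cells stably expressing full-length human GCGR, 6 μg protein/well, with 0.3 nM ¹²⁵I-glucagon plus compound, 2 h at room temperature. Buffer: 50 mM HEPES pH 7.4, 5 mM MgCl2, 1 mM CaCl2, 0.2% BSA. IC50 by non-linear regression, converted to Ki.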

human GCGR = human GCGR (Homo sapiens (Human), UniProt P47871); test: Cellular functional assay, cAMP readout (glucagon-stimulated cAMP in HEK293 cells expressing human GCGR); type: cell-based; details: hGluc-1 HEK cells, LANCE TR-FRET, IC50 converted to Ki, average if tested more than once
Outline: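 HEK293 cells stably transfected with full-length human GCGR were exposed to compound for 30 min before a 5-min challenge with […] (final) glucagon. Readout was TR-FRET (LANCE) cAMP versus standard curve; IC50s fitted by non-linear regression and converted to Ki values.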

human glucagon receptor (GCGR), sequence (P47871 26-477): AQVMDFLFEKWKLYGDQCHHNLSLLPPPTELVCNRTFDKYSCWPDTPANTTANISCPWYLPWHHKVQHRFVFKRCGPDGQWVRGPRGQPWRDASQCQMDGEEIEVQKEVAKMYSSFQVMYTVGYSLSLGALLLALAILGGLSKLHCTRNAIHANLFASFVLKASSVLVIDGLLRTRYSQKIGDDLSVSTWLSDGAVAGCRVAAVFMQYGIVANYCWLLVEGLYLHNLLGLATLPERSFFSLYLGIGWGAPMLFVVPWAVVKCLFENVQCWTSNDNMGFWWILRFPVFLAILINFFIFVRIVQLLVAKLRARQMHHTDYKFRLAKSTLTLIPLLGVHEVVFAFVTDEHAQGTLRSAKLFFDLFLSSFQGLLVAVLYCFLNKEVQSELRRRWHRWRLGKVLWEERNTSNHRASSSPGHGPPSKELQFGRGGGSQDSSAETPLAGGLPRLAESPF
human GCGR, sequence (P47871 26-477): as above

Structure (SMILES)	Ki [1] [nM]	Ki (human GCGR) [nM]
N#Cc1cc(NCc2cc(F)c(F)cc2-c2ccc(C(=O)NCCC(=O)O)nc2)ccc1-c1ccc(Cl)cc1F [Compound 111, 3-(5-(2-(((4′-chloro-2-cyano-2′-fluoro-[1,1′-biphenyl]-4-yl)amino)methyl)-4,5-difluorophenyl)picolinamido)propanoic acid]	69.6	180
Cc1ccc(-c2ccc(NCc3cc(F)c(F)cc3-c3ccc(C(=O)NCCC(=O)O)nc3)cc2C#N)c(F)c1 [Compound 112, 3-(5-(2-(((2-cyano-2′-fluoro-4′-methyl-[1,1′-biphenyl]-4-yl)amino)methyl)-4,5-difluorophenyl)picolinamido)propanoic acid]	76.5	280
N#Cc1cc(NCc2cc(F)c(F)cc2-c2ccc(C(=O)NCCC(=O)O)nc2)ccc1-c1ccc(Cl)c(C(F)(F)F)c1 [Compound 113, 3-(5-(2-(((4′-chloro-2-cyano-3′-(trifluoromethyl)-[1,1′-biphenyl]-4-yl)amino)methyl)-4,5-difluorophenyl)picolinamido)propanoic acid]	58.3	650
N#Cc1cc(NCc2cc(F)c(F)cc2-c2ccc(C(=O)NCCC(=O)O)nc2)ccc1-c1ccc(Cl)cc1Cl [Compound 114, 3-(5-(2-(((2′,4′-dichloro-2-cyano-[1,1′-biphenyl]-4-yl)amino)methyl)-4,5-difluorophenyl)picolinamido)propanoic acid]	40.4	73.5
Cc1cc(-c2ccc(NCc3cc(F)c(F)cc3-c3ccc(C(=O)NCCC(=O)O)nc3)cc2C#N)ccc1F [Compound 115, 3-(5-(2-(((2-cyano-4′-fluoro-3′-methyl-[1,1′-biphenyl]-4-yl)amino)methyl)-4,5-difluorophenyl)picolinamido)propanoic acid]	95.7	500
O=C(O)CCNC(=O)c1ccc(-c2cc(F)c(F)cc2CNc2ccc(-c3ccc(Cl)cc3)cc2)cn1 [Compound 117, 3-(5-(2-(((4′-chloro-[1,1′-biphenyl]-4-yl)amino)methyl)-4,5-difluorophenyl)picolinamido)propanoic acid]	43.5	160
O=C(O)CCNC(=O)c1ccc(-c2cc(F)c(F)cc2CNc2ccc(-c3ccc(Cl)cc3Cl)cc2)cn1 [Compound 118, 3-(5-(2-(((2′,4′-dichloro-[1,1′-biphenyl]-4-yl)amino)methyl)-4,5-difluorophenyl)picolinamido)propanoic acid]	67.8	120
O=C(O)CCNC(=O)c1ccc(-c2cc(Cl)ccc2CNc2ccc(-c3cccc(OC(F)(F)F)c3)cc2)cn1 [Compound 129, 3-(5-(5-chloro-2-(((3′-(trifluoromethoxy)-[1,1′-biphenyl]-4-yl)amino)methyl)phenyl)picolinamido)propanoic acid]	84.6	700
O=C(O)CCNC(=O)c1ccc(-c2cc(Cl)ccc2CNc2ccc(-c3cccc(C(F)(F)F)c3)cc2)cn1 [Compound 130, 3-(5-(5-chloro-2-(((3′-(trifluoromethyl)-[1,1′-biphenyl]-4-yl)amino)methyl)phenyl)picolinamido)propanoic acid]	62.6	390
O=C(O)CCNC(=O)c1ccc(-c2cc(Cl)ccc2CNc2ccc(-c3ccccc3C(F)(F)F)cc2)cn1 [Compound 131, 3-(5-(5-chloro-2-(((2′-(trifluoromethyl)-[1,1′-biphenyl]-4-yl)amino)methyl)phenyl)picolinamido)propanoic acid]	71.3	1750
O=C(O)CCNC(=O)c1ccc(-c2cc(Cl)ccc2CNc2ccc(-c3ccccc3OC(F)(F)F)cc2)cn1 [Compound 132, 3-(5-(5-chloro-2-(((2′-(trifluoromethoxy)-[1,1′-biphenyl]-4-yl)amino)methyl)phenyl)picolinamido)propanoic acid]	123	1930
O=C(O)CCNC(=O)c1ccc(-c2cc(Cl)ccc2CNc2ccc(-c3ccccc3F)cc2)cn1 [Compound 133, 3-(5-(5-chloro-2-(((2′-fluoro-[1,1′-biphenyl]-4-yl)amino)methyl)phenyl)picolinamido)propanoic acid]	104	2000
